Tests used:
[1] = Metabolic stability in beagle dog plasma assessed as half life at 1 uM incubated for 60 min by LC-MS/MS method; assay type: ADME, cell-free, Canis lupus familiaris
[2] = Metabolic stability in human liver S9 fraction assessed as half life at 1 uM incubated for 60 min by LC-MS/MS method; assay type: ADME, subcellular
[3] = Metabolic stability in Sprague-Dawley rat plasma assessed as half life at 1 uM incubated for 60 min by LC-MS/MS method; assay type: ADME, cell-free
[4] = Metabolic stability in human plasma assessed as half life at 1 uM incubated for 60 min by LC-MS/MS method; assay type: ADME, cell-free
[5] = Metabolic stability in beagle dog liver S9 fraction assessed as half life at 1 uM incubated for 60 min by LC-MS/MS method; assay type: ADME, subcellular, Canis lupus familiaris
[6] = Cmax in beagle dog assessed as BXN at 1 mg/kg, IV administered for 30 mins measured after 24 hrs post dose by LC-MS/MS analysis; assay type: ADME, organism-based, Canis lupus familiaris; set-up: dose 1 mg/kg, time 24.5 hrs, route iv; conditions: in vivo, 24.5 h
[7] = AUClast in Sprague-Dawley rat assessed as BXN at 1 mg/kg, IV administered for 30 mins measured after 24 hrs post dose by LC-MS/MS analysis; assay type: ADME, organism-based; set-up: dose 1 mg/kg, time 24.5 hrs, route iv; conditions: in vivo, 24.5 h
[8] = Cmax in beagle dog at 1 mg/kg, IV administered for 30 mins measured after 24 hrs post dose by LC-MS/MS analysis; assay type: ADME, organism-based, Canis lupus familiaris; set-up: time 24.5 hrs, dose 1 mg/kg, route iv; conditions: in vivo
[9] = Cmax in Sprague-Dawley rat assessed as BXN at 5 mg/kg, IM administered for 30 mins measured after 24 hrs post dose by LC-MS/MS analysis; assay type: ADME, organism-based; set-up: time 24.5 hrs, dose 5 mg/kg, route im; conditions: in vivo, 24.5 h
[10] = AUClast in beagle dog at 1 mg/kg, IV administered for 30 mins measured after 24 hrs post dose by LC-MS/MS analysis; assay type: ADME, organism-based, Canis lupus familiaris; set-up: time 24.5 hrs, dose 1 mg/kg, route iv; conditions: in vivo
[11] = AUClast in beagle dog assessed as BXN at 1 mg/kg, IV administered for 30 mins measured after 24 hrs post dose by LC-MS/MS analysis; assay type: ADME, organism-based, Canis lupus familiaris; set-up: dose 1 mg/kg, time 24.5 hrs, route iv; conditions: in vivo, 24.5 h
[12] = Prodrug conversion in Sprague-Dawley rat assessed as ratio of AUC for compound to BXN at 5 mg/kg,IM and measured after 60 mins by LC-MS/MS analysis; assay type: ADME, organism-based; conditions: in vivo, 1 h
[13] = Prodrug conversion in beagle dog assessed as ratio of AUC for compound to BXN at 1 mg/kg,IV and measured after 60 mins by LC-MS/MS analysis; assay type: ADME, organism-based, Canis lupus familiaris; conditions: in vivo, 1 h
[14] = AUClast in beagle dog assessed as BXN at 5 mg/kg, IM administered for 30 mins measured after 24 hrs post dose by LC-MS/MS analysis; assay type: ADME, organism-based, Canis lupus familiaris; set-up: time 24.5 hrs, dose 5 mg/kg, route im; conditions: in vivo, 24.5 h
[15] = AUClast in Sprague-Dawley rat at 1 mg/kg, IV administered for 30 mins measured after 24 hrs post dose by LC-MS/MS analysis; assay type: ADME, organism-based; set-up: dose 1 mg/kg, time 24.5 hrs, route iv; conditions: in vivo
[16] = AUClast in Sprague-Dawley rat assessed as BXN at 5 mg/kg, IM administered for 30 mins measured after 24 hrs post dose by LC-MS/MS analysis; assay type: ADME, organism-based; set-up: time 24.5 hrs, dose 5 mg/kg, route im; conditions: in vivo, 24.5 h
[17] = Half life in Sprague-Dawley rat assessed as BXN at 5 mg/kg, IM administered for 30 mins measured after 24 hrs post dose by LC-MS/MS analysis; assay type: ADME, organism-based; conditions: in vivo, 24.5 h
[18] = Cmax in Sprague-Dawley rat at 1 mg/kg, IV administered for 30 mins measured after 24 hrs post dose by LC-MS/MS analysis; assay type: ADME, organism-based; set-up: time 24.5 hrs, dose 1 mg/kg, route iv; conditions: in vivo
[19] = Cmax in beagle dog assessed as BXN at 5 mg/kg, IM administered for 30 mins measured after 24 hrs post dose by LC-MS/MS analysis; assay type: ADME, organism-based, Canis lupus familiaris; set-up: time 24.5 hrs, dose 5 mg/kg, route im; conditions: in vivo, 24.5 h
[20] = Half life in Sprague-Dawley rat assessed as BXN at 1 mg/kg, IV administered for 30 mins measured after 24 hrs post dose by LC-MS/MS analysis; assay type: ADME, organism-based; conditions: in vivo, 24.5 h
[21] = Half life in beagle dog assessed as BXN at 1 mg/kg, IV administered for 30 mins measured after 24 hrs post dose by LC-MS/MS analysis; assay type: ADME, organism-based, Canis lupus familiaris; conditions: in vivo, 24.5 h
[22] = Half life in Sprague-Dawley rat at 1 mg/kg, IV administered for 30 mins measured after 24 hrs post dose by LC-MS/MS analysis; assay type: ADME, organism-based; conditions: in vivo, time 24.5 hrs
[23] = Prodrug conversion in Sprague-Dawley rat assessed as ratio of AUC for compound to BXN at 1 mg/kg,IV and measured after 60 mins by LC-MS/MS analysis; assay type: ADME, organism-based; conditions: in vivo, 1 h
[24] = Clearance in Sprague-Dawley rat at 1 mg/kg, IV administered for 30 mins measured after 24 hrs post dose by LC-MS/MS analysis; assay type: ADME, organism-based; conditions: in vivo, time 24.5 hrs
[25] = Cmax in Sprague-Dawley rat assessed as BXN at 1 mg/kg, IV administered for 30 mins measured after 24 hrs post dose by LC-MS/MS analysis; assay type: ADME, organism-based; set-up: time 24.5 hrs, dose 1 mg/kg, route iv; conditions: in vivo, 24.5 h
[26] = Half life in beagle dog assessed as BXN at 5 mg/kg, IM administered for 30 mins measured after 24 hrs post dose by LC-MS/MS analysis; assay type: ADME, organism-based, Canis lupus familiaris; conditions: in vivo, 24.5 h
[27] = Prodrug conversion in beagle dog assessed as ratio of AUC for compound to BXN at 5 mg/kg,IM and measured after 60 mins by LC-MS/MS analysis; assay type: ADME, organism-based, Canis lupus familiaris; conditions: in vivo, 1 h
[28] = Metabolic stability in Sprague-Dawley rat liver S9 fraction assessed as half life at 1 uM incubated for 60 min by LC-MS/MS method; assay type: ADME, subcellular

For `CC(=O)OCCCC(=O)O[C@@H]1CC[C@@]2(C)[C@@H](CC[C@@H]3[C@@H]2CC[C@]2(C)[C@@H](C(C)=O)CC[C@@H]32)C1`, the half-life at 1 µM [1] was 138 min, the half-life at 1 µM [2] was 0.9 min and the half-life at 1 µM [3] was 1.6 min. The half-life at 1 µM [4] was 176 min.
With `CC(=O)[C@H]1CC[C@H]2[C@@H]3CC[C@H]4C[C@H](OC(=O)CC5CCCC5)CC[C@]4(C)[C@H]3CC[C@]12C` the half-life at 1 µM [2] was 25 min and the half-life at 1 µM [4] was 300 min.
In the case of `CC(=O)OCCCC(C)C(=O)O[C@@H]1CC[C@@]2(C)[C@@H](CC[C@@H]3[C@@H]2CC[C@]2(C)[C@@H](C(C)=O)CC[C@@H]32)C1` (stereo partly specified), the half-life at 1 µM [1] is reported as 233 min, the half-life at 1 µM [2] is reported as 0.9 min and the half-life at 1 µM [5] is reported as 1 min. It also gave a half-life at 1 µM [4] of 145 min.
For `CC(=O)[C@H]1CC[C@H]2[C@@H]3CC[C@H]4C[C@H](OC(=O)OCc5oc(=O)oc5C)CC[C@]4(C)[C@H]3CC[C@]12C`, the Cmax [6] was 241 ng/mL, the AUClast [7] was 113 ng·h/mL and the half-life at 1 µM [1] was 30 min. The Cmax [8] was 151 ng/mL, the Cmax [9] was 23.4 ng/mL and the AUC(0-t) at 24.5 h [10] was 62.6 ng·h/mL. The half-life at 1 µM [2] was 1.2 min, the AUClast [11] was 148 ng·h/mL and the “Ratio AUC” value [12] was 2.9. For the same compound, the “Ratio AUC” value [13] was 2.4, the AUClast [14] was 122 ng·h/mL and the half-life at 1 µM [3] was < 2 min. For the same compound, the half-life at 1 µM [5] was 2.3 min, the AUC(0-t) at 24.5 h [15] was 38.6 ng·h/mL and the AUClast [16] was 253 ng·h/mL. For the same compound, the t1/2 [17] was 1730 min, the Cmax [18] was 103 ng/mL and the Cmax [19] was 26.6 ng/mL. For the same compound, the t1/2 [20] was 1900 min, the t1/2 [21] was 28.4 min and the half-life [22] was 17 min. For the same compound, the “Ratio AUC” value [23] was > 253, the clearance [24] was 440 mL/min/kg and the half-life at 1 µM [4] was 40 min. For the same compound, the Cmax [25] was 107 ng/mL, the t1/2 [26] was 618 min and the “Ratio AUC” value [27] was > 122.
`CC(=O)[C@H]1CC[C@H]2[C@@H]3CC[C@H]4C[C@H](OC(=O)CCCOC(=O)C(C)C)CC[C@]4(C)[C@H]3CC[C@]12C` showed a half-life at 1 µM [1] of 233 min, a half-life at 1 µM [2] of 1.2 min and a half-life at 1 µM [3] of 1.2 min. For the same compound, the half-life at 1 µM [5] was 1.9 min, the half-life at 1 µM [4] was 140 min and the half-life at 1 µM [28] was 1.1 min.
In the case of `CCCCOC(=O)O[C@@H]1CC[C@@]2(C)[C@@H](CC[C@@H]3[C@@H]2CC[C@]2(C)[C@@H](C(C)=O)CC[C@@H]32)C1`, the half-life at 1 µM [1] is reported as 132 min, the half-life at 1 µM [2] is reported as 1.6 min and the half-life at 1 µM [3] is reported as 6.3 min. For the same compound, the half-life at 1 µM [5] was 1.5 min, the half-life at 1 µM [4] was > 233 min and the half-life at 1 µM [28] was 16 min.
Compound `CC(=O)[C@H]1CC[C@H]2[C@@H]3CC[C@H]4C[C@H](OC(=O)NCCOC(=O)C(C)C)CC[C@]4(C)[C@H]3CC[C@]12C` has a half-life at 1 µM [2] of 0.6 min and a half-life at 1 µM [4] of 289 min.
